Laboratory results taken from ChEMBL document CHEMBL2177020, “Structure-activity relationship studies of orally active antimalarial 3,5-substituted 2-aminopyridines” (J Med Chem, 2012).
Converted amounts (≈) assume the structure as drawn.

Key:
[1] = Kinetic solubility of the compound in phosphate buffer at pH 6.5 by nephelometry analysis; format: physicochemical; conditions: read-out: Kinetic_solubility
[2] = Kinetic solubility of the compound in 0.01M HCl at pH 2 by nephelometry analysis; format: physicochemical; conditions: read-out: Kinetic_solubility
physchem = conditions: octanol/water, pH 7.4
Plasma [3] = assay: Average plasma concentration in Swiss mouse at 30 mg/kg, po after up to 24 hrs; format: ADME, organism-based; design: dose 30 mg/kg, route oral; conditions: in vivo
Plasma [4] = assay: Average plasma concentration in Swiss mouse at 30 mg/kg, po after up to 8 hrs; format: ADME, organism-based; design: dose 30 mg/kg, route oral; conditions: in vivo
[5] = Plasma concentration in Swiss mouse at 30 mg/kg, po after 24 hrs; format: ADME, organism-based; design: dose 30 mg/kg, route oral
[6] = Plasma concentration in Swiss mouse at 30 mg/kg, po after 0.5 hrs; format: ADME, organism-based; design: dose 30 mg/kg, route oral
[7] = Plasma concentration in Swiss mouse at 30 mg/kg, po after 8 hrs; format: ADME, organism-based; design: dose 30 mg/kg, route oral

Structure (SMILES)	solubility kinetic [1] [µg/mL]	solubility kinetic [2] [µg/mL]	logD (physchem)	Cave (Plasma [3]) [nM]	Cave (Plasma [4]) [nM]	concentration at 24 h [5] [nM]	concentration at 0.5 h [6] [nM]	concentration at 8 h [7] [nM]
CN1CCN(C(=O)c2ccc(-c3cnc(N)c(-c4ccc(C(F)(F)F)cc4)c3)cc2)CC1	25 (≈ 56.8 µM)	> 100	3.9					
Nc1ncc(-c2ccc(C(=O)N3CCNCC3)cc2)cc1-c1ccc(C(F)(F)F)nc1	50 (≈ 117 µM)	> 100	2.4					
Nc1ncc(-c2ccc(C(=O)N3CCNCC3)cc2)cc1-c1ccc(C(F)(F)F)cc1	25 (≈ 58.6 µM)	> 100	3.3					
COc1ccc(-c2cc(-c3ccc(-c4nnc(C)o4)cc3)cnc2N)cn1	12.5 (≈ 34.8 µM)	> 100	2.6					
COc1ccc(-c2cc(-c3ccc4nccn4c3)cnc2N)cn1	12.5 (≈ 39.4 µM)	> 100	2.4					
COc1ccc(-c2cc(-c3ccc4cnn(C)c4c3)cnc2N)cn1	6.3 (≈ 19 µM)	> 100	3					
COc1ccc(-c2cc(-c3ccc4ncccc4c3)cnc2N)cn1	6.3 (≈ 19.2 µM)	> 100	2.9					
COc1ccc(-c2cc(-c3ccc(C(=O)O)cc3)cnc2N)cn1	6.3 (≈ 19.6 µM)	12.5 (≈ 38.9 µM)	0.8					
COc1ccc(-c2cc(-c3ccc(C(N)=O)cc3)cnc2N)cn1	12.5 (≈ 39 µM)	> 100	1.7	2400	8200	10	10600	1300
COc1ccc(-c2cc(-c3cccc(C(N)=O)c3)cnc2N)cn1	12.5 (≈ 39 µM)	> 100	1.7					
COc1ccc(-c2cc(-c3ccc(C(=O)N(C)C)cc3)cnc2N)cn1	> 100	> 100	2.1		25100	< 1	30800	6400
CNC(=O)c1ccc(-c2cnc(N)c(-c3ccc(OC)nc3)c2)cc1	50 (≈ 150 µM)	50 (≈ 150 µM)	1.8					
COc1ccc(-c2cc(-c3ccc(C(=O)NCCCO)cc3)cnc2N)cn1	12.5 (≈ 33 µM)	> 100						
COc1ccc(-c2cc(-c3ccc(C(=O)NCCN4CCOCC4)cc3)cnc2N)cn1	> 100	> 100	1.9					
COc1ccc(-c2cc(-c3ccc(C(=O)NCCN4CCCC4)cc3)cnc2N)cn1	> 100	> 100	2.5					
COc1ccc(-c2cc(-c3ccc(C(=O)N4CCN(C)CC4)cc3)cnc2N)cn1	> 100	> 100	2					
COc1ccc(-c2cc(-c3ccc(C(=O)N4CCOCC4)cc3)cnc2N)cn1	25 (≈ 64 µM)	25 (≈ 64 µM)	2		7800		10300	800
Nc1ncc(-c2ccc(C(=O)N3CCOCC3)cc2)cc1-c1ccc(C(F)(F)F)nc1	25 (≈ 58.4 µM)	> 100	2.4		3400		4110	840

Structure (SMILES)	solubility kinetic [1] [µg/mL]	solubility kinetic [2] [µg/mL]	logD (physchem)	Cave (Plasma [3]) [nM]	Cave (Plasma [4]) [nM]	concentration at 24 h [5] [nM]	concentration at 0.5 h [6] [nM]	concentration at 8 h [7] [nM]
Nc1ncc(-c2ccc(C(=O)N3CCOCC3)cc2)cc1-c1ccc(C(F)(F)F)cc1	6.3 (≈ 14.7 µM)	> 100	3.1	100	200	1	300	50
CN1CCN(C(=O)c2ccc(-c3cnc(N)c(-c4ccc(C(F)(F)F)nc4)c3)cc2)CC1	> 100	> 100	2.9					
COc1ccc(-c2cc(-c3cccc(S(C)(=O)=O)c3)cnc2N)cn1	25 (≈ 70.3 µM)	> 100	2.3					
COc1ccc(-c2cc(-c3ccc(S(=O)(=O)N(C)C)cc3)cnc2N)cn1	6.3 (≈ 16.4 µM)	> 100	2.8					
CNS(=O)(=O)c1ccc(-c2cnc(N)c(-c3ccc(OC)nc3)c2)cc1	12.5 (≈ 33.7 µM)	> 100	2.2					
COc1ccc(-c2cc(-c3ccc(S(N)(=O)=O)cc3)cnc2N)cn1	12.5 (≈ 35.1 µM)	> 100	1.8					
COc1ccc(-c2cc(-c3ccc(S(=O)(=O)NC4CC4)cc3)cnc2N)cn1	6.3 (≈ 15.9 µM)	> 100	2.7					
COc1ccc(-c2cc(-c3ccc(S(=O)(=O)N4CCOCC4)cc3)cnc2N)cn1	6.3 (≈ 14.8 µM)	> 100	2.7					
COc1ccc(-c2cc(-c3ccc(S(=O)(=O)N4CCN(C)CC4)cc3)cnc2N)cn1	25 (≈ 56.9 µM)	> 100	2.7					
COc1ccc(-c2cc(-c3ccc(NS(C)(=O)=O)cc3)cnc2N)cn1	25 (≈ 67.5 µM)	> 100	2.2					
COc1ccc(-c2cc(-c3ccc(S(C)(=O)=O)c(F)c3)cnc2N)cn1	6.3 (≈ 16.9 µM)	> 100	2.5					
COc1ccc(-c2cc(-c3ccc(S(C)(=O)=O)cc3C(F)(F)F)cnc2N)cn1	12.5 (≈ 29.5 µM)	> 100	2.7					
COc1ccc(-c2cc(-c3ccc(OC(F)(F)F)cc3)cnc2N)cn1	1.6 (≈ 4.43 µM)	> 100	4.3					
COc1ccc(-c2cc(-c3ccc(C(F)(F)F)cc3)cnc2N)cn1	1.6 (≈ 4.63 µM)	> 100	4.2					
COc1ccc(-c2cnc(N)c(-c3ccc(OC)nc3)c2)cn1	25 (≈ 81.1 µM)	> 100	2.8					
COc1ccc(-c2cc(-c3ccc(-n4cncn4)cc3)cnc2N)cn1	6.3 (≈ 18.3 µM)	> 100	2.4					
COc1ccc(-c2cc(-c3ccc(-n4cccn4)cc3)cnc2N)cn1	3.1 (≈ 9.03 µM)	> 100	3.1					
